One data set concerns Huh7 ET cells. Conditions: for CC50: read-out: HCV replicon CC50, concentration reducing cell viability by 50%, 72 h; for CC90: read-out: HCV replicon CC90, concentration reducing cell viability by 90%, 72 h. As for the experimental part: Both cell toxicity and HCV replicon inhibition assays were performed in triplicate in wells of a 96-well flat-bottom, white-wall plates (E&K Scientific, Santa Clara, CA) by the Drug Development Division, Southern Research Institute (SRI; Birmingham, AL). […] Prior to the assays, sub-confluent Huh7 ET cultures were seeded in wells of a 96-well plate. Following a 24 h incubation at 37°C in a 5% CO2 incubator, increasing concentrations of the compounds were added to the wells and incubation was continued for an additional 72 h. […] Human interferon α2b was used as a control. The cellular replicon-derived luciferase activity was measured using the Steady-Glo Luciferase Assay System (Promega, Fitchburg, WI) and a fluorescence spectrophotometer. Cytotoxicity of compounds was measured using the CytoTox-ONE Homogeneous Membrane Integrity Assay (Promega). The IC50 and IC90 values of the compounds (compound concentrations inhibiting the replicon by 50% and 90%, respectively) as well as CC50 and CC90 (compound concentration decreasing cell viability by 50% and 90%, respectively) were calculated using GraphPad Prism.
(In general: Replicon systems follow genome replication, usually without infectious particles.)

The test system of data set [1] is sub-genomic HCV RNA replicon. The experiment in a line: HCV replicon inhibition assay, luciferase reporter in Huh7 ET cells. Format: cell-based. Conditions: 72 h; for pIC50: concentration reducing viral replication by 50%; for IC90: concentration reducing viral replication by 90%. As for the experimental part: To support our in vitro data, the inhibition of HCV RNA replication was then measured using human hepatocarcinoma Huh7 ET cells. These cells express a sub-genomic HCV RNA replicon with a stable luciferase reporter. The replicon contains the 5′-end Internal Ribosome Entry Site (IRES) of HCV which drives the production of a firefly luciferase, ubiquitin, and neomycin phosphotransferase (Neo) fusion protein. Ubiquitin cleavage releases the luciferase and Neo proteins. The IRES element encephalomyocarditis virus controls the translation of the HCV […] proteins NS3-NS5 in the replicon. The NS3 protein cleaves the synthesized HCV polyprotein to release the mature NS3, NS4A, NS4B, NS5A and NS5B proteins that are required for HCV replication. The authentic 3′-end non-translating region of HCV is localized at the 3′-end of the replicon. As a result, the activity of the luciferase reporter is directly proportional to HCV RNA levels and positive control antiviral compounds behave comparably using either luciferase or RNA endpoints.
Human interferon α2b was used as a control.

Another data set deals with NS3/4A R155K. Format: biochemical, HCV genotype 1b, strain HC-J4. Conditions: fold change in IC50 for the mutant compared to WT. The source says:
(§1) Reagents were purchased from Sigma unless indicated otherwise. The FRET substrate Ac-DE-D(Edans)-EE-Abu-ψ-[COO]-AS-K(Dabsyl)-NH2, purified recombinant wild-type NS3/4A from HCV genotype 1b, strain HC-J4, and the mutants with the V36M, R155K, A156T, D168A and V170A resistance mutations were from AnaSpec (Fremont, CA). The NS3/4A construct represented the individual NS3 proteinase domain N-terminally fused with an NS4A co-factor and tagged with a 6xHis tag. […] Pyroglutamic acid-Arg-Thr-Lys-Arg-7-amino-4-methylcoumarin was from Peptides International (Louisville, KY). West Nile virus NS2B-NS3 proteinase (strain NY99) was expressed, purified and refolded to restore its functional activity as described earlier. The pET15b-Den2-CF40-Gly-NS3pro 185 plasmid encoding the Dengue virus type 2 NS2B-NS3 protease was a kind gift of Dr. Subhash Vasudevan (Program in Emerging Infectious Diseases, DUKE-NUS Graduate Medical School, Singapore). DV NS2B-NS3 proteinase was expressed purified and refolded to restore its functional activity as described previously, [70]. The expression of the soluble C-terminally truncated human furin construct in Sf9 insect cells (an ovarian cell line from fall armyworm Spodoptera frugiperda; Invitrogen, Carlsbad, CA) infected with the recombinant baculovirus and purification of soluble furin from the medium were described earlier. Original human hepatocarcinoma Huh7 cells were obtained from ATCC (Manassas, VA).
(§2) The NS3/4A activity assay was performed at 37°C in triplicate in wells of a 96-well plate in 0.2 ml 50 mM HEPES, pH 7.5, containing 100 mM NaCl, 10 mM DTT, 20% glycerol, the Ac-DE-D(Edans)-EE-Abu-ψ-[COO]-AS-K(Dabsyl)-NH2 substrate (10 µM) and the NS3/4A enzyme (10 nM). Reaction velocity was monitored continuously at λex = 355 nm and λem = 500 nm for 10 min using a Spectramax Gemini EM fluorescence spectrophotometer (Molecular Devices, Sunnyvale, CA) and the initial rate of reaction v was recorded for each reaction. […] Compound stock solutions (10 mM) were made in 100% DMSO. Stocks were then diluted using the assay buffer. As a result, the final DMSO concentration was always below 1% in the assay reactions.
(§3) To measure the inhibitory potency of the compounds, their increasing concentrations were pre-incubated with the individual proteinases in the corresponding buffer for 30 min at ambient temperature. At least, 7–9 different concentrations were used for each inhibitor. The residual activity of the enzymes was then measured as above. The IC50 values of the inhibitory compounds were calculated by determining the concentrations of the compounds needed to inhibit 50% of the enzyme activity against the peptide substrate. GraphPad Prism was used as fitting software.

A further data set concerns NS3/4A A156T. Type of data set: biochemical, HCV genotype 1b, strain HC-J4. Conditions: fold change in IC50 for the mutant compared to WT.
Source text: as §1, §2, §3

In a further data set the test system is NS3/4A V36M. Format: biochemical, HCV genotype 1b, strain HC-J4. Conditions: fold change in IC50 for the mutant compared to WT.
Source text: as §1, §2, §3

Each structure is given as a SMILES string. pIC50: −log10 of the molar value.

A word on the pIC50: it is the negative decadic logarithm of the IC50, by convention in mol/L. The low end stands for a high IC50, the high end for a low IC50. The IC90 is the concentration at which the effect reaches the 90% level. Lower therefore signals greater potency. As to `Clc1ccc(Nc2nc(SCc3ccccc3)nc3n[nH]c(Cc4nc5ccccc5s4)c23)cc1` [Compound 5], in the data set on Huh7 ET cells, the CC50 is greater than 100 µM and the CC90 is greater than 100 µM. Moreover, in data set [1], the pIC50 was less than 4.00 and the IC90 is greater than 100 µM. Also, in the data set on NS3/4A R155K, the “NS3/4A R155K FC” value stood at 25.4. In addition, the “NS3/4A A156T FC” value in the data set on NS3/4A A156T is 48.95. In addition, the “NS3/4A V36M FC” value in the data set with NS3/4A V36M was 2.8.
Turning to `Oc1ccccc1-c1nnc2sc3c(Cl)c4nn5c(-c6ccccc6O)nnc5sc4c(Cl)c3nn12` [Compound 4], in the data set on Huh7 ET cells, the CC50 was greater than 100 µM and the CC90 is greater than 100 µM. In data set [1], this molecule showed a pIC50 of 4.55 and an IC90 of 99.4 µM. Besides, the “NS3/4A R155K FC” value in the data set on NS3/4A R155K is 10.4. The “NS3/4A A156T FC” value with NS3/4A A156T was 18.17. Moreover, the “NS3/4A V36M FC” value in the data set with NS3/4A V36M is 0.9.
With `Cc1n[nH]c(=S)n1Nc1nc(SCc2ccccc2)nc2n[nH]c(Cc3nn[nH]n3)c12` [Compound 3], in the data set with Huh7 ET cells, the CC50 is greater than 100 µM and the CC90 is greater than 100 µM. In data set [1], this molecule had a pIC50 of less than 4.00 and an IC90 greater than 100 µM. Moreover, in the data set on NS3/4A R155K, the “NS3/4A R155K FC” value was 15.4. The “NS3/4A A156T FC” value in the data set with NS3/4A A156T worked out at 45.14. In addition, the “NS3/4A V36M FC” value in the data set on NS3/4A V36M came to 4.6.
Turning to `S=c1[nH]nc(Nc2nc(SCc3ccccc3)nc3n[nH]c(Cc4nn[nH]n4)c23)s1` [Compound 6], in the data set with Huh7 ET cells, the CC50 was greater than 100 µM and the CC90 is greater than 100 µM. In data set [1], this molecule showed a negative-log IC50 (pIC50) of less than 4.00 and an IC90 greater than 100 µM. For the same molecule, in the data set on NS3/4A R155K, the “NS3/4A R155K FC” value is 2.4. In addition, the “NS3/4A A156T FC” value in the data set on NS3/4A A156T is recorded as 3.24. Also, in the data set on NS3/4A V36M, the “NS3/4A V36M FC” value is 1.04.
On to `COc1cc(C2C(C(=O)Nc3ccc(Cl)c(Cl)c3)=C(C)NC(C)=C2C(=O)Nc2ccc(Cl)c(Cl)c2)ccc1O` [Compound 8], for which, in the data set on Huh7 ET cells, the CC50 turned out to be 14.2 µM and the CC90 was 26.6 µM. In data set [1], this molecule had a pIC50 of 4.87 and an IC90 of 19.2 µM. For the same molecule, in the data set on NS3/4A R155K, the “NS3/4A R155K FC” value was 5.7. Further, the “NS3/4A A156T FC” value with NS3/4A A156T is listed as 9.2. In addition, the “NS3/4A V36M FC” value in the data set with NS3/4A V36M is 0.96.
As to `S=c1[nH]n2c(COc3cc(Cl)c(OCc4nnc5sc(=S)[nH]n45)cc3Cl)nnc2s1` [Compound 7], in the data set with Huh7 ET cells, the CC50 amounted to 86.8 µM and the CC90 stood at 96.3 µM. Besides, in data set [1], the pIC50 is 5.00 and it took 54.4 µM to reach the 90% level (IC90). Besides, the “NS3/4A R155K FC” value in the data set on NS3/4A R155K was 1.6. Also, the “NS3/4A A156T FC” value in the data set on NS3/4A A156T is reported as 0.9. Moreover, the “NS3/4A V36M FC” value in the data set on NS3/4A V36M is 1.1.
On to `Clc1ccc(OCc2nn3c(CCc4nnc5sc(COc6ccc(Cl)cc6)nn45)nnc3s2)cc1` [Compound 2], for which, in the data set with Huh7 ET cells, the CC50 came out at 9.99 µM and the CC90 was 22.1 µM. Also, in data set [1], the negative logarithm of the IC50 (pIC50) was 5.00 and the 90% effect concentration (IC90) was 25.2 µM. Also, in the data set on NS3/4A R155K, the “NS3/4A R155K FC” value came to 19.5. Also, the “NS3/4A A156T FC” value with NS3/4A A156T worked out at 57.57. Besides, in the data set on NS3/4A V36M, the “NS3/4A V36M FC” value is 5.1.
With `O=C(Nc1ccccc1)c1cc(S(=O)(=O)Nc2nc3ncccc3[nH]2)c(SSc2cc(Cl)c(C(=O)Nc3ccccc3)cc2S(=O)(=O)Nc2nc3ncccc3[nH]2)cc1Cl` [Compound 1], in the data set with Huh7 ET cells, the CC50 was greater than 100 µM and the CC90 was greater than 100 µM. Moreover, in data set [1], the pIC50 was less than 4.00 and the IC90 is greater than 100 µM. The “NS3/4A R155K FC” value with NS3/4A R155K is 9.6. In the data set on NS3/4A A156T, the “NS3/4A A156T FC” value was 3.93. Also, the “NS3/4A V36M FC” value with NS3/4A V36M is reported as 1.4.

Source of the values: article PMC3388044, “Probing of Exosites Leads to Novel Inhibitor Scaffolds of HCV NS3/4A Proteinase” (PLoS ONE, 2012).
